{"source": "patent EP0516660B1", "about": "“USE OF S-ADENOSYL METHIONINE AS AN AGENT AGAINST VIRAL INFECTIONS BY RETROVIRUSES” (Grundmann, Ewald, Dr., priority 1990, dated 1991)", "system": "HIV", "assay": "HIV-infected lymphocyte cultures, virus amount determined as radioactive reverse transcriptase in the culture supernatant", "assay_type": "cell-based", "settings": "for Reverse Transkriptase: HIV-Zahl in Lymphocyten-Kultur", "procedure": "Lymphocyten-Kulturen aus der Nabelschnur von Neugeborenen (H. Rübsamen-Waigmann et al. \"Isolation of Variants of Lymphocytopathic Retroviruses from the Peripheral Blood and Cerebrospinal Fluid of Patients with ABC or AIDS\", J. Medical Virology 19, S. 335 bis 344; 1986) wurden mit Viren, die dem Blut von AIDS-Kranken entnommen waren, geimpft. Dazu werden zu 5 ml der Lymphocyten-Kultur (1 · 10⁶ Zellen pro ml) 0,5 ml einer HIV-Suspension gegeben, die 10⁴ bis 10⁵ infektiöse Partikel pro ml enthält. Die Kulturmedien werden mit unterschiedlichen Mengen S-Adenosyl-L-methionintosylat-bis-Sulfat versetzt. Ein Drittel bis zur Hälfte des jeweiligen Kulturmediums werden nach 1 bis 2 Tagen durch frisches Kulturmedium gleicher Zusammensetzung ersetzt.\nRetroviren zeichnen sich dadurch aus, daß sie ausschließlich RNA (Ribonukleinsäure) als Nukleinsäure enthalten und eine spezielle Polymerase, nämlich Reverse Transkriptase benötigen, die nach der Infektion in der Wirtszelle aus der Virus-RNA eine in die DNA der Wirtszelle einbaubare Virus-DNA bildet, vgl. H. Rübsamen \"Biochemie der Tumorviren\", Chemie in unserer Zeit 17, S. 169 bis 180; 1983. Daraus ergibt sich eine Nachweismethode für Retroviren, die auf der für diese typischen Reversen Transkriptase und dem durch diese in die DNA eingebauten Tritium-markierten Thymidin beruht, vgl. H. Rübsamen et al., l.c.:\nIn Abhängigkeit vom positiven Nachweis der Infektion durch mikroskopische Kontrolle werden nach 3 bis 5 Tagen jeweils 5 ml der überstehenden Kulturflüssigkeit durch Zentrifugieren (1o min bei 10.000 g) geklärt. Die so geklärte Probe wird bei 100.000 g/50 min zentrifugiert und der Rückstand in 60 µl eines Tris-Puffers lysiert (10 mM Tris, 0,2 % Triton X-100, 1 mM EDTA, 5 mM Dithiothreitol, 60 mM KCl, pH 7,3).\nJeweils 30 µl des Lysats werden mit 30 µl Templat (0,01 mg/ml Poly(rA)·oligo (dT) (Pharmacia, Uppsala, Schweden) in 5 mM MgCl₂, 2,4 mM Dithiothreitol, 60 mM KCl und 0,0034 mM Methyl-[³H]thymidin-5'-Triphosphat; 48 Ci/mM, Amersham, Bucks; England) 90 min bei 37° C inkubiert. Die Reaktion wird durch Zugabe von 10-proz. Laurylsarkosin bis zu einer Laurylsarkosin-Endkonzentration von 1,4 % beendet. Die freie und in das RNA/DNA-Hybrid eingebaute Radioaktivität von 10 µl des mit Laurylsarkosin versetzten Inkubats werden dann in üblicher Weise an einem DEAE-Filter getrennt, das nach dem Waschen und Trocknen in eine Szintillationsflüssigkeit gegeben wird. Die Radioaktivität wird dann mit einem Szintillationszähler gemessen. Die eingebaute Radioaktivität (Zerfälle pro min pro 5 ml) nach Abzug des Blindwertes ist dann ein Maß für die in der überstehenden Kulturflüssigkeit enthaltene Reverse Transkriptase und damit für die Menge an Retroviren, die in der Kultur enthalten sind."}
{"smiles": "C[S+](CC[C@H](N)C(=O)O)C[C@H]1O[C@@H](n2cnc3c(N)ncnc32)[C@H](O)[C@@H]1O", "note": "(stereo partly drawn) [Adenosylmethionin, S-Adenosyl-L-methionintosylat-bis-Sulfat]", "values": [{"measurement": "Reverse Transkriptase", "setting": "Adenosylmethionin 4 µg/ml", "result": "114 000 counts/min und 5 ml"}, {"measurement": "Reverse Transkriptase", "setting": "Adenosylmethionin 40 µg/ml", "result": "86 000 counts/min und 5 ml"}, {"measurement": "Reverse Transkriptase", "setting": "Adenosylmethionin 200 µg/ml", "result": "73 000 counts/min und 5 ml"}, {"measurement": "Reverse Transkriptase", "setting": "Adenosylmethionin 400 µg/ml", "result": "60 000 counts/min und 5 ml"}, {"measurement": "Reverse Transkriptase", "setting": "Adenosylmethionin 1000 µg/ml", "result": "29 000 counts/min und 5 ml"}, {"measurement": "IC50", "setting": "Human immunodeficiency virus 1, Lymphocyte, read-out: Halbwertskonzentration, bei der die Retrovirenkonzentration auf die Hälfte zurückgeht", "result": "100 to 200", "unit": "µg/mL"}]}
